Laboratory results taken from PubChem BioAssay (NCI).
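Five concentrations, 48 hours, 96-well plates. At the GI50, growth is halved. TGI marks complete inhibition of growth.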

Experiments:
Assay in all cases: growth of human tumour cells (NCI), 48 h
KM12 colon = tested on: KM12 colon
MCF7 breast = tested on: MCF7 breast
OVCAR-8 ovarian = tested on: OVCAR-8 ovarian
MDA-MB-231 breast = tested on: MDA-MB-231 breast
SF-295 CNS = tested on: SF-295 CNS
HCC-2998 colon = tested on: HCC-2998 colon
K-562 leukemia = tested on: K-562 leukemia
LOX IMVI melanoma = tested on: LOX IMVI melanoma
UACC-62 melanoma = tested on: UACC-62 melanoma
SK-MEL-5 melanoma = tested on: SK-MEL-5 melanoma
UO-31 renal = tested on: UO-31 renal
SK-MEL-28 melanoma = tested on: SK-MEL-28 melanoma
U251 CNS = tested on: U251 CNS
UACC-257 melanoma = tested on: UACC-257 melanoma
T-47D breast = tested on: T-47D breast
NCI/ADR-RES ovarian = tested on: NCI/ADR-RES ovarian
MOLT-4 leukemia = tested on: MOLT-4 leukemia
A498 renal = tested on: A498 renal
MDA-MB-435 = tested on: MDA-MB-435
PC-3 prostate = tested on: PC-3 prostate
SF-539 CNS = tested on: SF-539 CNS
ACHN renal = tested on: ACHN renal
RPMI-8226 leukemia = tested on: RPMI-8226 leukemia
OVCAR-4 ovarian = tested on: OVCAR-4 ovarian
SNB-19 CNS = tested on: SNB-19 CNS
BT-549 breast = tested on: BT-549 breast
OVCAR-5 ovarian = tested on: OVCAR-5 ovarian
OVCAR-3 ovarian = tested on: OVCAR-3 ovarian
HL-60(TB) leukemia = tested on: HL-60(TB) leukemia
HOP-92 NSCLC = tested on: HOP-92 NSCLC
NCI-H226 lung = tested on: NCI-H226 lung
MALME-3M melanoma = tested on: MALME-3M melanoma
NCI-H522 lung = tested on: NCI-H522 lung
IGROV1 ovarian = tested on: IGROV1 ovarian
A549 NSCLC = tested on: A549 NSCLC
HT29 colon = tested on: HT29 colon
SW-620 colon = tested on: SW-620 colon
HCT-15 colon = tested on: HCT-15 colon
SN12C renal = tested on: SN12C renal
NCI-H460 lung = tested on: NCI-H460 lung
CCRF-CEM leukemia = tested on: CCRF-CEM leukemia
TK-10 renal = tested on: TK-10 renal
SF-268 CNS = tested on: SF-268 CNS
RXF 393 renal = tested on: RXF 393 renal
CAKI-1 renal = tested on: CAKI-1 renal
SK-OV-3 ovarian = tested on: SK-OV-3 ovarian
EKVX NSCLC = tested on: EKVX NSCLC
SNB-75 CNS = tested on: SNB-75 CNS
SR leukemia = tested on: SR leukemia
SK-MEL-2 melanoma = tested on: SK-MEL-2 melanoma
NCI-H23 lung = tested on: NCI-H23 lung
HS 578T breast = tested on: HS 578T breast
COLO 205 colon = tested on: COLO 205 colon

`COc1cc(/C=C2\C(=O)Nc3ccc(O)cc32)cc(OC)c1OC` was tested, and the GI50 (KM12 colon) was 17 µM, the TGI (KM12 colon) was greater than 100 µM and the GI50 (MCF7 breast) was 8.59 µM. For the same compound, the TGI (MCF7 breast) was greater than 100 µM, the GI50 (OVCAR-8 ovarian) was 18.3 µM and the TGI (OVCAR-8 ovarian) was 65.6 µM. For the same compound, the GI50 (MDA-MB-231 breast) was 8.06 µM, the TGI (MDA-MB-231 breast) was 37 µM and the GI50 (SF-295 CNS) was 26.4 µM. It also gave a TGI (SF-295 CNS) greater than 100 µM, a GI50 (HCC-2998 colon) of 7.46 µM and a TGI (HCC-2998 colon) of 20.9 µM. For the same compound, the GI50 (K-562 leukemia) was 3.83 µM, the TGI (K-562 leukemia) was greater than 100 µM and the GI50 (LOX IMVI melanoma) was 4.53 µM. For the same compound, the TGI (LOX IMVI melanoma) was 16.6 µM, the GI50 (UACC-62 melanoma) was 11.7 µM and the TGI (UACC-62 melanoma) was 26.6 µM. For the same compound, the GI50 (SK-MEL-5 melanoma) was 6.31 µM, the TGI (SK-MEL-5 melanoma) was 25.1 µM and the GI50 (UO-31 renal) was 12.1 µM. For the same compound, the TGI (UO-31 renal) was 33.3 µM, the GI50 (SK-MEL-28 melanoma) was 14.1 µM and the TGI (SK-MEL-28 melanoma) was 30.2 µM. It also gave a GI50 (U251 CNS) of 4.08 µM, a TGI (U251 CNS) of 16.8 µM and a GI50 (UACC-257 melanoma) of 8.48 µM. For the same compound, the TGI (UACC-257 melanoma) was 22.1 µM, the GI50 (T-47D breast) was 7.55 µM and the TGI (T-47D breast) was greater than 100 µM. For the same compound, the GI50 (NCI/ADR-RES ovarian) was 17.8 µM, the TGI (NCI/ADR-RES ovarian) was 59 µM and the GI50 (MOLT-4 leukemia) was 1.24 µM. The TGI (MOLT-4 leukemia) was 28.5 µM, the GI50 (A498 renal) was 18.3 µM and the TGI (A498 renal) was 40.6 µM. The GI50 (MDA-MB-435) was 3.96 µM, the TGI (MDA-MB-435) was 17.1 µM and the GI50 (PC-3 prostate) was 2.4 µM. For the same compound, the TGI (PC-3 prostate) was 19.1 µM, the GI50 (SF-539 CNS) was 5.86 µM and the TGI (SF-539 CNS) was 81.5 µM. It also gave a GI50 (ACHN renal) of 15.9 µM, a TGI (ACHN renal) of 78.6 µM and a GI50 (RPMI-8226 leukemia) of 3.53 µM. The TGI (RPMI-8226 leukemia) was 21.3 µM, the GI50 (OVCAR-4 ovarian) was 11.1 µM and the TGI (OVCAR-4 ovarian) was 55.7 µM. The GI50 (SNB-19 CNS) was 11.9 µM, the TGI (SNB-19 CNS) was 40.6 µM and the GI50 (BT-549 breast) was 11 µM. The TGI (BT-549 breast) was 29.4 µM, the GI50 (OVCAR-5 ovarian) was 17.5 µM and the TGI (OVCAR-5 ovarian) was 33.5 µM. The GI50 (OVCAR-3 ovarian) was 6.44 µM, the TGI (OVCAR-3 ovarian) was 28.3 µM and the GI50 (HL-60(TB) leukemia) was 6.11 µM. For the same compound, the TGI (HL-60(TB) leukemia) was 40.7 µM, the GI50 (HOP-92 NSCLC) was 7.92 µM and the TGI (HOP-92 NSCLC) was 30.2 µM. It also gave a GI50 (NCI-H226 lung) of 21.1 µM, a TGI (NCI-H226 lung) of 54.4 µM and a GI50 (MALME-3M melanoma) of 17.9 µM. For the same compound, the TGI (MALME-3M melanoma) was 44.4 µM, the GI50 (NCI-H522 lung) was 4.24 µM and the TGI (NCI-H522 lung) was 17.1 µM. The GI50 (IGROV1 ovarian) was 12.1 µM, the TGI (IGROV1 ovarian) was 35.7 µM and the GI50 (A549 NSCLC) was 21 µM. The TGI (A549 NSCLC) was 88 µM, the GI50 (HT29 colon) was 10.3 µM and the TGI (HT29 colon) was 25.3 µM. For the same compound, the GI50 (SW-620 colon) was 10.5 µM, the TGI (SW-620 colon) was greater than 100 µM and the GI50 (HCT-15 colon) was 13.1 µM. The TGI (HCT-15 colon) was 41 µM, the GI50 (SN12C renal) was 15.5 µM and the TGI (SN12C renal) was 72.2 µM. It also gave a GI50 (NCI-H460 lung) of 8.69 µM, a TGI (NCI-H460 lung) of 35.9 µM and a GI50 (CCRF-CEM leukemia) of 4.34 µM. For the same compound, the TGI (CCRF-CEM leukemia) was 34.4 µM, the GI50 (TK-10 renal) was 40 µM and the TGI (TK-10 renal) was greater than 100 µM. It also gave a GI50 (SF-268 CNS) of 6.49 µM, a TGI (SF-268 CNS) of 26.8 µM and a GI50 (RXF 393 renal) of 2.19 µM. It also gave a TGI (RXF 393 renal) of 5.94 µM, a GI50 (CAKI-1 renal) of 23.1 µM and a TGI (CAKI-1 renal) of 83.1 µM. The GI50 (SK-OV-3 ovarian) was 27.8 µM, the TGI (SK-OV-3 ovarian) was 98.1 µM and the GI50 (EKVX NSCLC) was 18.6 µM. It also gave a TGI (EKVX NSCLC) of 59 µM, a GI50 (SNB-75 CNS) of 8.54 µM and a TGI (SNB-75 CNS) of 33.7 µM. For the same compound, the GI50 (SR leukemia) was 1.75 µM, the TGI (SR leukemia) was 9.5 µM and the GI50 (SK-MEL-2 melanoma) was 13.6 µM. The TGI (SK-MEL-2 melanoma) was 34.7 µM, the GI50 (NCI-H23 lung) was 6.76 µM and the TGI (NCI-H23 lung) was 24.8 µM. For the same compound, the GI50 (HS 578T breast) was 13.5 µM, the TGI (HS 578T breast) was greater than 100 µM and the GI50 (COLO 205 colon) was 20 µM. The TGI (COLO 205 colon) was 59.6 µM.
